In US20250144094A1 (Erasca, Inc., priority 2021, published 2025):

Target: Recombinant human ULK1 (1-649) (Homo sapiens (Human), UniProt O75385)
Experiment: ULK1 ADP Glo kinase activity assay, new method (ULKtide peptide substrate)
Conditions: 25° C., 40 minutes, read-out: ULK1 biochemical IC50
Method: Recombinant human ULK1 (1-649) protein expressed in Sf9 insect cells was obtained from SignalChem (Vancouver, BC), catalog #U01-11G. Active kinase was purified via N-terminal GST tag to >85% purity.
ADP GLO Kinase Assay Reagents were obtained from Promega Corp (Madison, WI), catalog #V9104.
Synthetic peptide substrate (ULKtide) with the amino acid sequence YANWLAASIYLDGKKK was obtained from ThermoFisher Scientific USA.
ULK1 inhibitor potency was determined using the luminescent ADP Glo Kinase Assay (Promega), a universal ADP detection system that measures kinase activity by quantifying the amount of ADP produced during a kinase reaction. ULK1 kinase reactions are performed in a standard 96-well microplate (20 μL reaction volume) at 25° C. for 40 minutes in the presence or absence of the test compound (12-point dilution series starting at 10 μM). Addition of peptide substrate and ATP initiates the kinase reaction.
The standard ADP Glo assay is performed in two steps. In step one, following the kinase reaction, an equal volume of ADP-Glo™ Reagent (20 μL) is added to terminate the kinase reaction and deplete the remaining ATP. In the second step, the Kinase Detection Reagent (10 μL) is added to simultaneously convert ADP to ATP and allow the newly synthesized ATP to be measured using a luciferase/luciferin reaction. Step two of the ADP Glo assay is performed in a white 384-well plate (20 μL final volume). Thirty minutes after the addition of the Detection reagent, light generated from the luciferase reaction is measured (1 second exposure) using a microplate compatible luminometer (CLARIOstar, BMG Labtech).
Inhibition of ULK1 kinase activity is determined for each test compound by comparison to DMSO only control wells. Inhibitor IC50 was calculated by plotting the change in luminescence after 30 minutes (response) versus inhibitor concentration (in log molar) then applying the four-parameter variable slope curve fit (GraphPad Prism). Inhibition of ULK1 in biochemical assay is found in Table 4.

Recombinant human ULK1 (1-649), sequence (O75385 1-649): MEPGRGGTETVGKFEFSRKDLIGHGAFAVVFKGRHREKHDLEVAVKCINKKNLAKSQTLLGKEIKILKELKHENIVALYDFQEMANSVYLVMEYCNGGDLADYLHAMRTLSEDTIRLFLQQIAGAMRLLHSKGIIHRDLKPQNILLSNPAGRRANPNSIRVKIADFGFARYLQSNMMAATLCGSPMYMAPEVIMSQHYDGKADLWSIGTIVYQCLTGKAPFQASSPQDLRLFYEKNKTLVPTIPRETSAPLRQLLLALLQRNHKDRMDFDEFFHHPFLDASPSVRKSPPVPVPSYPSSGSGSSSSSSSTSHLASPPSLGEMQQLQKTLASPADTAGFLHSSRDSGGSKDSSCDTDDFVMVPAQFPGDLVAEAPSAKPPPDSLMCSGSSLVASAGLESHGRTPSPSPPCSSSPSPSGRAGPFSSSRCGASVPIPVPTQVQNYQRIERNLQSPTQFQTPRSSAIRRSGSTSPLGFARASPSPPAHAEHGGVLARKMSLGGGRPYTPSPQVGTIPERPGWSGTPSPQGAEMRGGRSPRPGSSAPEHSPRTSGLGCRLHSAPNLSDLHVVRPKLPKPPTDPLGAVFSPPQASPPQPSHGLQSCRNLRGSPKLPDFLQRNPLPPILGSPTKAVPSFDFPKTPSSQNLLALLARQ

Structure (SMILES)	IC50 [nM]
Cc1nn(C2CCNCC2)cc1Nc1ncc(C(F)(F)F)c(-c2cc3c(s2)C(=O)NCCS3(=O)=O)n1 [Example 165, 7-(2-((3-methyl-1-(piperidin-4-yl)-1H-pyrazol-4-yl)amino)-5-(trifluoromethyl)pyrimidin-4-yl)-3,4-dihydrothieno[2,3-f][1,4]thiazepin-5(2H)-one 1,1-dioxide]	> 100
Cc1nn(C2CCNCC2)cc1Nc1ncc(C(F)(F)F)c(-c2cc3c(s2)C(=O)N(C)CCS3(=O)=O)n1 [Example 166, 4-methyl-7-(2-((3-methyl-1-(piperidin-4-yl)-1H-pyrazol-4-yl)amino)-5-(trifluoromethyl)pyrimidin-4-yl)-3,4-dihydrothieno[2,3-f][1,4]thiazepin-5(2H)-one 1,1-dioxide]	> 100
CN1CCS(=O)(=O)c2cc(-c3nc(Nc4ccc5c(c4C4CC4)CNC5)ncc3C(F)(F)F)sc2C1=O [Example 170, 7-(2-((4-cyclopropylisoindolin-5-yl)amino)-5-(trifluoromethyl)pyrimidin-4-yl)-4-methyl-3,4-dihydrothieno[2,3-f][1,4]thiazepin-5(2H)-one 1,1-dioxide]	10 to 50
CCc1cc2c(cc1Nc1ncc(C(F)(F)F)c(-c3cc4c(s3)C(=O)N(CC(F)(F)F)CCS4(=O)=O)n1)CCNC2 [Example 175, 7-(2-((7-ethyl-1,2,3,4-tetrahydroisoquinolin-6-yl)amino)-5-(trifluoromethyl)pyrimidin-4-yl)-4-(2,2,2-trifluoroethyl)-3,4-dihydrothieno[2,3-f][1,4]thiazepin-5(2H)-one 1,1-dioxide]	≤ 5
Cc1c(Nc2ncc(C(F)(F)F)c(-c3cc4c(s3)C(=O)N(C)CCS4(=O)=O)n2)cnn1C1CCNCC1 [Example 176, 4-methyl-7-(2-((5-methyl-1-(piperidin-4-yl)-1H-pyrazol-4-yl)amino)-5-(trifluoromethyl)pyrimidin-4-yl)-3,4-dihydrothieno[2,3-f][1,4]thiazepin-5(2H)-one 1,1-dioxide]	> 100
CN1CCS(=O)(=O)c2cc(-c3nc(Nc4cc5c(cc4C4CC4)CNC5)ncc3C(F)(F)F)sc2C1=O [Example 177, 7-(2-((6-cyclopropylisoindolin-5-yl)amino)-5-(trifluoromethyl)pyrimidin-4-yl)-4-methyl-3,4-dihydrothieno[2,3-f][1,4]thiazepin-5(2H)-one 1,1-dioxide]	≤ 5
Cc1c(Nc2ncc(C(F)(F)F)c(-c3cc4c(s3)C(=O)NCCS4(=O)=O)n2)cnn1C1CCNCC1 [Example 178, 7-(2-((5-methyl-1-(piperidin-4-yl)-1H-pyrazol-4-yl)amino)-5-(trifluoromethyl)pyrimidin-4-yl)-3,4-dihydrothieno[2,3-f][1,4]thiazepin-5(2H)-one 1,1-dioxide]	> 100
O=C1NCCS(=O)(=O)c2cc(-c3nc(Nc4cc5c(cc4Cl)CNC5)ncc3C(F)(F)F)sc21 [Example 180, 7-(2-((6-chloroisoindolin-5-yl)amino)-5-(trifluoromethyl)pyrimidin-4-yl)-3,4-dihydrothieno[2,3-f][1,4]thiazepin-5(2H)-one 1,1-dioxide]	≤ 5
CN1Cc2cc(Cl)c(Nc3ncc(C(F)(F)F)c(-c4cc5c(s4)C(=O)N(C)CCS5(=O)=O)n3)cc2C1 [Example 181, 7-(2-((6-chloro-2-methylisoindolin-5-yl)amino)-5-(trifluoromethyl)pyrimidin-4-yl)-4-methyl-3,4-dihydrothieno[2,3-f][1,4]thiazepin-5(2H)-one 1,1-dioxide]	≤ 5
Cc1nn(C2CCN(C)CC2)cc1Nc1ncc(C(F)(F)F)c(-c2cc3c(s2)C(=O)NCCS3(=O)=O)n1 [Example 182, 7-(2-((3-methyl-1-(1-methylpiperidin-4-yl)-1H-pyrazol-4-yl)amino)-5-(trifluoromethyl)pyrimidin-4-yl)-3,4-dihydrothieno[2,3-f][1,4]thiazepin-5(2H)-one 1,1-dioxide]	> 100
Cc1nn(C2CCN(C)CC2)cc1Nc1ncc(C(F)(F)F)c(-c2cc3c(s2)C(=O)N(C)CCS3(=O)=O)n1 [Example 183, 4-methyl-7-(2-((3-methyl-1-(1-methylpiperidin-4-yl)-1H-pyrazol-4-yl)amino)-5-(trifluoromethyl)pyrimidin-4-yl)-3,4-dihydrothieno[2,3-f][1,4]thiazepin-5(2H)-one 1,1-dioxide]	> 100

Further lines, results first:

IC50 [nM]	Structure (SMILES)
≤ 5	CN1CCS(=O)(=O)c2cc(-c3nc(Nc4cc5c(cc4Cl)CCNC5)ncc3C(F)(F)F)sc2C1=O [Example 159, 7-(2-((6-chloro-1,2,3,4-tetrahydroisoquinolin-7-yl)amino)-5-(trifluoromethyl)pyrimidin-4-yl)-4-methyl-3,4-dihydrothieno[2,3-f][1,4]thiazepin-5(2H)-one 1,1-dioxide]
≤ 5	CCc1cc2c(cc1Nc1ncc(C(F)(F)F)c(-c3cc4c(s3)C(=O)N(C)CCS4(=O)=O)n1)CNC2 [Example 160, 7-(2-((6-ethylisoindolin-5-yl)amino)-5-(trifluoromethyl)pyrimidin-4-yl)-4-methyl-3,4-dihydrothieno[2,3-f][1,4]thiazepin-5(2H)-one 1,1-dioxide]
≤ 5	CSc1cc2c(cc1Nc1ncc(C(F)(F)F)c(-c3cc4c(s3)C(=O)N(C)CCS4(=O)=O)n1)CCNC2 [Example 161, 4-methyl-7-(2-((7-(methylthio)-1,2,3,4-tetrahydroisoquinolin-6-yl)amino)-5-(trifluoromethyl)pyrimidin-4-yl)-3,4-dihydrothieno[2,3-f][1,4]thiazepin-5(2H)-one 1,1-dioxide]
≤ 5	CCN1CCc2cc(Nc3ncc(C(F)(F)F)c(-c4cc5c(s4)C(=O)N(C)CCS5(=O)=O)n3)c(Cl)cc2C1 [Example 162, 7-(2-((7-chloro-2-ethyl-1,2,3,4-tetrahydroisoquinolin-6-yl)amino)-5-(trifluoromethyl)pyrimidin-4-yl)-4-methyl-3,4-dihydrothieno[2,3-f][1,4]thiazepin-5(2H)-one 1,1-dioxide]
≤ 5	O=S1(=O)CCOCc2sc(-c3nc(Nc4cc5c(cc4Cl)CNCC5)ncc3C(F)(F)F)cc21 [Example 163, 7-(2-((7-chloro-1,2,3,4-tetrahydroisoquinolin-6-yl)amino)-5-(trifluoromethyl)pyrimidin-4-yl)-2,3-dihydro-5H-thieno[3,2-e][1,4]oxathiepine 1,1-dioxide]
≤ 5	CN1CCS(=O)(=O)c2cc(-c3nc(Nc4cc5c(cc4Cl)CNC5)ncc3C(F)(F)F)sc2C1=O [Example 164, 7-(2-((6-chloroisoindolin-5-yl)amino)-5-(trifluoromethyl)pyrimidin-4-yl)-4-methyl-3,4-dihydrothieno[2,3-f][1,4]thiazepin-5(2H)-one 1,1-dioxide]
≤ 5	CN1CCc2cc(Nc3ncc(C(F)(F)F)c(-c4cc5c(s4)C(=O)N(C4CC4)CCS5(=O)=O)n3)c(Cl)cc2C1 [Example 167, 7-(2-((7-chloro-2-methyl-1,2,3,4-tetrahydroisoquinolin-6-yl)amino)-5-(trifluoromethyl)pyrimidin-4-yl)-4-cyclopropyl-3,4-dihydrothieno[2,3-f][1,4]thiazepin-5(2H)-one 1,1-dioxide]
≤ 5	CN1CCc2cc(Nc3ncc(C(F)(F)F)c(-c4cc5c(s4)C(=O)N(C4CCC4)CCS5(=O)=O)n3)c(Cl)cc2C1 [Example 168, 7-(2-((7-chloro-2-methyl-1,2,3,4-tetrahydroisoquinolin-6-yl)amino)-5-(trifluoromethyl)pyrimidin-4-yl)-4-cyclobutyl-3,4-dihydrothieno[2,3-f][1,4]thiazepin-5(2H)-one 1,1-dioxide]
≤ 5	CN1CCc2cc(Cl)c(Nc3ncc(C(F)(F)F)c(-c4cc5c(s4)C(=O)N(C)CCS5(=O)=O)n3)cc2C1 [Example 169]
≤ 5	CSc1cc2c(cc1Nc1ncc(C(F)(F)F)c(-c3cc4c(s3)C(=O)N(C)CCS4(=O)=O)n1)CCN(C)C2 [Example 171, 4-methyl-7-(2-((2-methyl-7-(methylthio)-1,2,3,4-tetrahydroisoquinolin-6-yl)amino)-5-(trifluoromethyl)pyrimidin-4-yl)-3,4-dihydrothieno[2,3-f][1,4]thiazepin-5(2H)-one 1,1-dioxide]
≤ 5	CN1CCS(=O)(=O)c2cc(-c3nc(Nc4cc5c(cc4C4CC4)CNCC5)ncc3C(F)(F)F)sc2C1=O [Example 173, 7-(2-((7-cyclopropyl-1,2,3,4-tetrahydroisoquinolin-6-yl)amino)-5-(trifluoromethyl)pyrimidin-4-yl)-4-methyl-3,4-dihydrothieno[2,3-f][1,4]thiazepin-5(2H)-one 1,1-dioxide]
≤ 5	CCc1cc(N2CCNCC2)ccc1Nc1ncc(C(F)(F)F)c(-c2cc3c(s2)C(=O)N(C)CCS3(=O)=O)n1 [Example 174, 7-(2-((2-ethyl-4-(piperazin-1-yl)phenyl)amino)-5-(trifluoromethyl)pyrimidin-4-yl)-4-methyl-3,4-dihydrothieno[2,3-f][1,4]thiazepin-5(2H)-one 1,1-dioxide]
